Source: patent US20220227737A1, “NOVEL OXALYL PIPERAZINES ACTIVE AGAINST THE HEPATITIS B VIRUS (HBV)” (AiCuris GmbH & Co. KG, priority 2019, published 2022)

What was measured:
[1] = Cell viability assay (AlamarBlue); conditions: human, HepAD38 cells
HBV = HBV replication assay: HBV DNA from the supernatants of HepAD38 cells; format: cell-based; conditions: Hepatitis B virus, 144 h, HBV DNA in supernatant at day 6, read-out: Cell Activity
Description: Determination of HBV DNA from the Supernatants of HepAD38 Cells
The anti-HBV activity was analysed in the stable transfected cell line HepAD38, which has been described to secrete high levels of HBV virion particles (Ladner et al., 1997). In brief, HepAD38 cells were cultured at 37° C. at 5% CO2 and 95% humidity in 200 μl maintenance medium, which was Dulbecco's modified Eagle's medium/Nutrient Mixture F-12 (Gibco, Karlsruhe), 10% fetal bovine serum (PAN Biotech Aidenbach) supplemented with 50 μg/ml penicillin/streptomycin (Gibco, Karlsruhe), 2 mM L-glutamine (PAN Biotech, Aidenbach), 400 μg/ml G418 (AppliChem, Darmstadt) and 0.3 μg/ml tetracycline. Cells were subcultured once a week in a 1:5 ratio, but were usually not passaged more than ten times. For the assay 60,000 cells were seeded in maintenance medium without any tetracycline into each well of a 96-well plate and treated with serial half-log dilutions of test compound. To minimize edge effects the outer 36 wells of the plate were not used but were filled with assay medium. On each assay plate six wells for the virus control (untreated HepAD38 cells) and six wells for the cell control (HepAD38 cells treated with 0.3 μg/ml tetracycline) were allocated, respectively. In addition, one plate set with reference inhibitors like BAY 41-4109, entecavir, and lamivudine instead of screening compounds were prepared in each experiment. In general, experiments were performed thrice in triplicates. At day 6 HBV DNA from 100 μl filtrated cell culture supernatant (AcroPrep Advance 96 Filter Plate, […] Supor membran, PALL GmbH, Dreieich) was automatically purified on the MagNa Pure LC instrument using the MagNA Pure 96 DNA and Viral NA Small Volume Kit (Roche Diagnostics, Mannheim) according to the instructions of the manufacturer. EC50 values were calculated from relative copy numbers of HBV DNA In brief, 5 μl of the 100 μl eluate containing HBV DNA were subjected to PCR LC480 Probes Master Kit (Roche) together with 1 μM antisense primer […], 0.5 μM sense primer […], 0.3 μM hybprobes […]-FL and LC640-[…]-PH (TIBMolBiol, Berlin) to a final volume of […]. The PCR was performed on the Light Cycler 480 real time system (Roche Diagnostics, Mannheim) using the following protocol: Pre-incubation for 1 min at 95° C., amplification: 40 cycles×(10 sec at 95° C., 50 sec at 60° C., 1 sec at 70° C.), cooling for 10 sec at 40° C. Viral load was quantitated against known standards using HBV plasmid DNA of pCH-9/3091 (Nassal et al., 1990, Cell 63: 1357-1363) and the LightCycler 480 SW 1.5 software (Roche Diagnostics, Mannheim) and EC50 values were calculated using non-linear regression with GraphPad Prism 6 (GraphPad Software Inc., La Jolla, USA).

[2] = molecular target: T1, C-terminal truncated core protein (HBV core dimer, BODIPY-FL labelled) (UniProt P03146); test: Biochemical capsid assembly assay (fluorescence quenching)
T1 construct: fused on or other part: One added cysteine at position 150, labelled with BODIPY-FL maleimide; The C-terminal arginine-rich domain is absent
Description: Biochemical Capsid Assembly Assay
The screening for assembly effector activity was done based on a fluorescence quenching assay published by Zlotnick et al. (2007). The C-terminal truncated core protein containing 149 amino acids of the N-terminal assembly domain fused to a unique cysteine residue at position 150 and was expressed in E. coli using the pET expression system (Merck Chemicals, Darmstadt). Purification of core dimer protein was performed using a sequence of size exclusion chromatography steps. In brief, the cell pellet from 1 L BL21 (DE3) Rosetta2 culture expressing the coding sequence of core protein cloned NdeI/XhoI into expression plasmid pET21b was treated for 1 h on ice with a native lysis buffer (Qproteome Bacterial Protein Prep Kit; Qiagen, Hilden). After a centrifugation step the supernatant was precipitated during 2 h stirring on ice with 0.23 g/ml of solid ammonium sulfate. Following further centrifugation the resulting pellet was resolved in buffer A (100 mM Tris, pH 7.5; 100 mM NaCl; 2 mM DTT) and was subsequently loaded onto a buffer A equilibrated CaptoCore 700 column (GE HealthCare, Frankfurt). The column flow through containing the assembled HBV capsid was dialyzed against buffer N (50 mM NaHCO3 pH 9.6; 5 mM DTT) before urea was added to a final concentration of 3M to dissociate the capsid into core dimers for 1.5 h on ice. The protein solution was then loaded onto a 1 L Sephacryl 5300 column. After elution with buffer N core dimer containing fractions were identified by SDS-PAGE and subsequently pooled and dialyzed against 50 mM HEPES pH 7.5; 5 mM DTT. To improve the assembly capacity of the purified core dimers a second round of assembly and disassembly starting with the addition of 5 M NaCl and including the size exclusion chromatography steps described above was performed. From the last chromatography step core dimer containing fractions were pooled and stored in aliquots at concentrations between 1.5 to 2.0 mg/ml at −80° C.
Immediately before labelling the core protein was reduced by adding freshly prepared DTT in a final concentration of 20 mM. After 40 min incubation on ice storage buffer and DTT was removed using a Sephadex G-25 column (GE HealthCare, Frankfurt) and 50 mM HEPES, pH 7.5. For labelling 1.6 mg/ml core protein was incubated at 4° C. and darkness overnight with BODIPY-FL maleimide (Invitrogen, Karlsruhe) in a final concentration of 1 mM. After labelling the free dye was removed by an additional desalting step using a Sephadex G-25 column. Labelled core dimers were stored in aliquots at 4° C. In the dimeric state the fluorescence signal of the labelled core protein is high and is quenched during the assembly of the core dimers to high molecular capsid structures. The screening assay was performed in black 384 well microtiter plates in a total assay volume of 10 μl using 50 mM HEPES pH 7.5 and 1.0 to 2.0 μM labelled core protein. Each screening compound was added in 8 different concentrations using a 0.5 log-unit serial dilution starting at a final concentration of 100 μM, 31.6 μM or 10 μM, In any case the DMSO concentration over the entire microtiter plate was 0.5%. The assembly reaction was started by the injection of NaCl to a final concentration of […] which induces the assembly process to approximately 25% of the maximal quenched signal. […] after starting the reaction the fluorescence signal was measured using a Clariostar plate reader (BMG Labtech, Ortenberg) with an excitation of 477 nm and an emission of 525 nm. As 100% and 0% assembly control HEPES buffer containing 2.5 M and 0 M NaCl was used. Experiments were performed thrice in triplicates. EC50 values were calculated by non-linear regression analysis using the Graph Pad Prism 6 software (GraphPad Software, La Jolla, USA).

T1 sequence (P03146 whole entry, the tested form may be a part): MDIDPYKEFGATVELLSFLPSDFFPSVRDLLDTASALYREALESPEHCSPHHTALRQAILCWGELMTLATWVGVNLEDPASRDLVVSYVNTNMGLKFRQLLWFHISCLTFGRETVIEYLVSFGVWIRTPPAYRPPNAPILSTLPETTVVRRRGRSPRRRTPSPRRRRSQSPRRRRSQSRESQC

Row | SMILES | CC50 at 6 days [1] [µM] | EC50 (HBV) [µM] | IC50 [2] [µM]
1 | CCCCNC(=O)C(=O)N1CCN(C(=O)c2cc3cccc(Br)c3[nH]2)CC1 [Example 5, 2-[4-(7-bromo-1H-indole-2-carbonyl)piperazin-1-yl]-N-butyl-2-oxoacetamide] | > 100 | < 1 | < 5
2 | CCCCNC(=O)C(=O)N1CCN(C(=O)c2cc3ccccc3[nH]2)CC1 [Example 6, N-butyl-2-[4-(1H-indole-2-carbonyl)piperazin-1-yl]-2-oxoacetamide] | > 100 | < 1 | < 5
3 | O=C(NC1CCCC1)C(=O)N1CCN(C(=O)c2cc3cccc(Br)c3[nH]2)CC1 [Example 7, 2-[4-(7-bromo-1H-indole-2-carbonyl)piperazin-1-yl]-N-cyclopentyl-2-oxoacetamide] | > 100 | < 1 | 5 to 10
4 | CCCCNC(=O)C(=O)N1CCCN(C(=O)c2cc3ccccc3[nH]2)CC1 [Example 8, N-butyl-2-[4-(1H-indole-2-carbonyl)-1,4-diazepan-1-yl]-2-oxoacetamide] | > 100 | < 1 | < 100
5 | CCCCNC(=O)C(=O)N1CCN(C(=O)c2cc3c(F)cc(F)cc3[nH]2)CC1 [Example 9, N-butyl-2-(4-(4,6-difluoro-1H-indole-2-carbonyl)piperazin-1-yl)-2-oxoacetamide] | > 100 | < 1 | < 5
6 | O=C(NCc1ccoc1)C(=O)N1CCN(C(=O)c2cc3ccccc3[nH]2)CC1 [Example 10, 2-(4-(1H-indole-2-carbonyl)piperazin-1-yl)-N-(furan-3-ylmethyl)-2-oxoacetamide] | > 100 | < 1 | < 5
7 | CCCCCCNC(=O)C(=O)N1CCN(C(=O)c2cc3ccccc3[nH]2)CC1 [Example 11, 2-(4-(1H-indole-2-carbonyl)piperazin-1-yl)-N-hexyl-2-oxoacetamide] | > 100 | 1 to 10 | < 5
8 | CC1(CNC(=O)C(=O)N2CCN(C(=O)c3cc4ccccc4[nH]3)CC2)CCOC1 (stereo not drawn) [Example 12, 2-[4-(1H-indole-2-carbonyl)piperazin-1-yl]-N-[(3-methyloxolan-3-yl)methyl]-2-oxoacetamide] | > 100 | < 1 | < 5
9 | COC1(CNC(=O)C(=O)N2CCN(C(=O)c3cc4ccccc4[nH]3)CC2)CC1 [Example 13, 2-(4-(1H-indole-2-carbonyl)piperazin-1-yl)-N-((1-methoxycyclopropyl)methyl)-2-oxoacetamide] | > 100 | < 1 | 5 to 10
10 | CCCCNC(=O)C(=O)N1CCN(C(=O)c2cc3ccc(F)cc3[nH]2)CC1 [Example 23, N-butyl-2-(4-(6-fluoro-1H-indole-2-carbonyl)piperazin-1-yl)-2-oxoacetamide] | > 100 | < 1 | < 5
11 | CCCCNC(=O)C(=O)N1CCN(C(=O)c2cc3cccc(F)c3[nH]2)CC1 [Example 25, N-butyl-2-(4-(7-fluoro-1H-indole-2-carbonyl)piperazin-1-yl)-2-oxoacetamide] | > 100 | < 1 | < 5
12 | CCCCNC(=O)C(=O)N1CCN(C(=O)c2cc3c(F)cccc3[nH]2)CC1 [Example 26, N-butyl-2-(4-(4-fluoro-1H-indole-2-carbonyl)piperazin-1-yl)-2-oxoacetamide] | > 100 | < 1 | < 5
13 | CC(O)CNC(=O)C(=O)N1CCN(C(=O)c2cc3ccccc3[nH]2)CC1 (stereo not drawn) [Example 28, 2-(4-(1H-indole-2-carbonyl)piperazin-1-yl)-N-(2-hydroxypropyl)-2-oxoacetamide] | > 100 | < 1 | < 5
14 | O=C(NCCCCO)C(=O)N1CCN(C(=O)c2cc3ccccc3[nH]2)CC1 [Example 29, 2-(4-(1H-indole-2-carbonyl)piperazin-1-yl)-N-(4-hydroxybutyl)-2-oxoacetamide] | > 100 | 1 to 10 | < 5
15 | O=C(NCC1(O)CCC1)C(=O)N1CCN(C(=O)c2cc3ccccc3[nH]2)CC1 [Example 30, 2-(4-(1H-indole-2-carbonyl)piperazin-1-yl)-N-((1-hydroxycyclobutyl)methyl)-2-oxoacetamide] | > 100 | < 1 | < 5
16 | O=C(NCC1(CO)CC1)C(=O)N1CCN(C(=O)c2cc3ccccc3[nH]2)CC1 [Example 31, 2-(4-(1H-indole-2-carbonyl)piperazin-1-yl)-N-((1-(hydroxymethyl)cyclopropyl)methyl)-2-oxoacetamide] | > 100 | < 1 | 5 to 10
17 | CC(C)(O)CNC(=O)C(=O)N1CCN(C(=O)c2cc3ccccc3[nH]2)CC1 [Example 32, 2-(4-(1H-indole-2-carbonyl)piperazin-1-yl)-N-(2-hydroxy-2-methylpropyl)-2-oxoacetamide] | > 100 | < 1 | < 5
18 | O=C(NC1CCOC1)C(=O)N1CCN(C(=O)c2cc3ccccc3[nH]2)CC1 (stereo not drawn) [Example 35, 2-(4-(1H-indole-2-carbonyl)piperazin-1-yl)-2-oxo-N-(tetrahydrofuran-3-yl)acetamide] | > 100 | < 1 | 5 to 10
19 | CC(C)(C)NC(=O)C(=O)N1CCN(C(=O)c2cc3ccccc3[nH]2)CC1 [Example 52, N-tert-butyl-2-[4-(1H-indole-2-carbonyl)piperazin-1-yl]-2-oxoacetamide] | > 100 | < 1 | < 5
